Laboratory results: PubChem BioAssay (NCI)
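Compound exposure: 48 hours, 5 concentrations, 96-well plates. GI50 marks 50% less growth. TGI marks complete inhibition of growth.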

Tests used:
Assay in all cases: NCI tumour cell line growth inhibition, 48 h
[1] = test system: OVCAR-8 ovarian
[2] = test system: HCT-116 colon
[3] = test system: SN12C renal
[4] = test system: M14 melanoma
[5] = test system: CAKI-1 renal
[6] = test system: OVCAR-4 ovarian
[7] = test system: PC-3 prostate
[8] = test system: SF-268 CNS
[9] = test system: SK-MEL-2 melanoma
[10] = test system: NCI-H23 lung
[11] = test system: EKVX NSCLC
[12] = test system: SNB-75 CNS
[13] = test system: HS 578T breast
[14] = test system: HCT-15 colon
[15] = test system: NCI/ADR-RES ovarian
[16] = test system: ACHN renal
[17] = test system: SK-MEL-5 melanoma
[18] = test system: MCF7 breast
[19] = test system: SW-620 colon
[20] = test system: SR leukemia
[21] = test system: A549 NSCLC
[22] = test system: A498 renal
[23] = test system: HOP-62 NSCLC
[24] = test system: 786-0 renal
[25] = test system: U251 CNS
[26] = test system: NCI-H522 lung
[27] = test system: HL-60(TB) leukemia
[28] = test system: UACC-62 melanoma
[29] = test system: SF-295 CNS
[30] = test system: IGROV1 ovarian

COc1ccc(/C=C/C(=O)c2cc3c(N)c(C(=O)Nc4cccc(Cl)c4C)sc3nc2C)cc1
GI50 [1]: 244 nM | TGI [1]: > 50000 nM | GI50 [2]: 188 nM | GI50 [3]: 362 nM | TGI [3]: > 50000 nM | GI50 [4]: 146 nM | TGI [4]: > 50000 nM | GI50 [5]: 284 nM | TGI [5]: > 26700 nM | GI50 [6]: 732 nM | TGI [6]: > 50000 nM | GI50 [7]: 209 nM | TGI [7]: > 50000 nM | GI50 [8]: 680 nM | TGI [8]: > 50000 nM | GI50 [9]: 389 nM | TGI [9]: > 50000 nM | GI50 [10]: 206 nM | GI50 [11]: 384 nM | TGI [11]: > 50000 nM | GI50 [12]: 147 nM | GI50 [13]: 173 nM | TGI [13]: > 50000 nM | GI50 [14]: 185 nM | TGI [14]: > 50000 nM | GI50 [15]: 127 nM | TGI [15]: 381 nM | GI50 [16]: 330 nM | TGI [16]: > 50000 nM | GI50 [17]: 192 nM | TGI [17]: 881 nM | GI50 [18]: 196 nM | TGI [18]: > 50000 nM | GI50 [19]: 219 nM | TGI [19]: > 50000 nM | GI50 [20]: 196 nM | TGI [20]: > 50000 nM | GI50 [21]: 261 nM | TGI [21]: > 50000 nM | GI50 [22]: 174 nM | TGI [22]: 781 nM | GI50 [23]: 288 nM | TGI [23]: > 50000 nM | GI50 [24]: 411 nM | TGI [24]: > 13600 nM | GI50 [25]: 201 nM | TGI [25]: 4360 nM | GI50 [26]: 126 nM | GI50 [27]: 140 nM | TGI [27]: 460 nM | GI50 [28]: 267 nM | TGI [28]: > 50000 nM | GI50 [29]: 295 nM | TGI [29]: > 50000 nM | GI50 [30]: 251 nM | TGI [30]: > 50000 nM
